No end group written: not given here.
Legend:
βAR kinase = target: T1, βAR kinase (Bos taurus, UniProt P21146); experiment: Phosphorylation of purified reconstituted β2ARs by purified βAR kinase (Example II); assay type: biochemical, bovine; details: 100 μM
T1 construct: βAR kinase was purified from bovine cerebral cortex; from tissue; host or cells: bovine cerebral cortex
T1 sequence (P21146 1-689): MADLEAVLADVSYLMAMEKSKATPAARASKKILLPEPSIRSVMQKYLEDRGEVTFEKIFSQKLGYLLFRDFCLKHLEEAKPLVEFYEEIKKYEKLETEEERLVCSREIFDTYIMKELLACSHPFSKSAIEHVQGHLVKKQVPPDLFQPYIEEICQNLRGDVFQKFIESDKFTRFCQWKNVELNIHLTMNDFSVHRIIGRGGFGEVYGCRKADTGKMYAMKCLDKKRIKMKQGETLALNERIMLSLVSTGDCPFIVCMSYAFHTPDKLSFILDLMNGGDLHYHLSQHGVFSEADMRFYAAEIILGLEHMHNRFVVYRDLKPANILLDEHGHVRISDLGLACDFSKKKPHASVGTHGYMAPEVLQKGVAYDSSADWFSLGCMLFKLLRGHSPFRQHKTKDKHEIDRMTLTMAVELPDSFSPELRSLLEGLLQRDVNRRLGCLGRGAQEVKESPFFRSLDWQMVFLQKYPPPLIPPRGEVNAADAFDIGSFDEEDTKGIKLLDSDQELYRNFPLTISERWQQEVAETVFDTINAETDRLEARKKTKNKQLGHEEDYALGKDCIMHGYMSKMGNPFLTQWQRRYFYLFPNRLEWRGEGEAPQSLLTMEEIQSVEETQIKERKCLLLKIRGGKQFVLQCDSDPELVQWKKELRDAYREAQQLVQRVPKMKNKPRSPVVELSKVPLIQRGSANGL
Method: FIG. 7. […] (Inset) Relevant section of a representative autoradiogram. Data are means±SEM of three independent experiments. […] Desensitization was measured as the percent loss of stimulation by 10 μM (−)-isoproterenol of adenylyl cyclase activity in membranes. […] Data are means±SEM of four independent experiments.
Purified β2ARs were inserted into phosphatidylcholine vesicles by chromatography on Extracti-gel, followed by polyethylene glycol treatment and centrifugation at 280,000×g for 90 min (Cerione et al (1984) Biochemistry 23:4519-4525). Phosphorylation of the reconstituted receptors by purified βAR kinase was done in the presence of 50 μM (−)-isoproterenol as described (Benovic et al (1987) J. Biol. Chem. 262:9026-9032). Subsequently, the samples were subjected to sodium dodecyl sulfate polyacrylamide gel electrophoresis on 10% gels (Laemmli (1970) Nature 227:680-685). The phosphorylated β2ARs were visualized by autoradiography, and the corresponding bands were cut out and their content of ^32P quantified.

[1] = tested on: β2ARs in permeabilized A431 cells; experiment: Desensitization of β2ARs in permeabilized A431 cells; assay type: cell-based, human; details: 100 μM
Method: Permeabilization of cells was accomplished as follows. Human epidermoid carcinoma A431 cells were grown to about 95% confluence in Dulbecco's modified Eagle's medium supplemented with 10% fetal calf serum. Cells were harvested with collagenase, washed three times with calcium-free phosphate-buffered saline (PBS), then washed twice in 150 mM potassium glutamate/10 mM Hepes/5 mM EGTA/7 mM MgCl2, pH 7.1 (KG buffer), and finally resuspended in KG buffer supplemented with 5 mM glucose and 2 mM ATP (KG-A buffer) at a density of 4×10^7 cells per ml.
At 4×10^7 cells per ml, about 0.015% digitonin was necessary to achieve permeabilization of >95% cells as assessed by staining with trypan blue. In all experiments, digitonin was added stepwise until >95% of the cells were trypan blue positive.

inhibition at 100 µM (βAR kinase): 0%
Sequence: AKFERLQTVTN [β2AR-(59-69)]
Inhibition of Desensitization, % [1]: 3 ± 12%

Source: US6605424B1, “Method of detecting inhibitors of agonist-specific desensitization” (Duke University, priority 1989, dated 2003)
